# Values quoted from earlier work as cited in patent publication US20070197530A1, “Amido compounds and their use as pharmaceuticals” (priority 2006, published 2007).
# How the values were obtained:
# [1] = tested on: pancreatic islet cells of ob/ob mice
# [2] = tested on: primary hippocampal cells
# [3] = tested on: bone nodule formation
# [4] = tested on: healthy volunteers; settings: after seven days of carbenoxolone treatment
compound,measurement,setting,value
CC1(C)[C@@H](OC(=O)CCC(=O)O)CC[C@]2(C)[C@H]3C(=O)C=C4[C@@H]5C[C@@](C)(C(=O)O)CC[C@]5(C)CC[C@@]4(C)[C@]3(C)CC[C@@H]12 [carbenoxolone],glucose-stimulated insulin release,[1],improves glucose-stimulated insulin release
same,protection from glucocorticoid-mediated exacerbation of excitatory amino acid neurotoxicity,[2],protects the cells from glucocorticoid-mediated exacerbation of excitatory amino acid neurotoxicity
same,negative effects of glucocorticoids on bone nodule formation,[3],attenuate the negative effects of glucocorticoids on bone nodule formation
same,IOP reduced by,[4],18%
